In patent US20120053148A1, “INHIBITORS OF HEPATITIS C VIRUS” (GILEAD SCIENCES, INC., priority 2010, published 2012) one finds EC50 and inhibition data, which are given here for 50 molecules.

The test system of the first experiment is HCV Replicon IB. The experiment is described as follows: HCV replicon assay in Huh-7 cells, genotype 1b (Rluc luciferase readout). In kind it is cell-based, hepatitis C virus. Conditions: HCV1B replicon, Huh-7 cells, 3 days; read-out: EC50_HCV1B_. (Replicon systems follow genome replication, usually without infectious particles.)
Take `Cc1cc(-c2nnc(N[C@H]3CC[C@@](C)(O)CC3)o2)nc2c(C(C)(C)C)cc(OCC(F)(F)F)cc12` [Compound 497]: the EC50 was found to be 73.7 nM.

With `Cc1cc(-c2nnc(NCC[C@H](C)O)s2)nc2c(C(C)(C)C)cc(C3CC3)cc12` [Compound 385], the EC50 was 1.73 nM.

Staying with this experiment, now noted: Hepatitis C virus, 72 h; 10 uM; 1b-Rluc replicon, Huh-7 cells, 3 days; read-out: Inhibition @ 10 uM in 1b-Rluc.
The inhibition is how much of the control response was suppressed. In the case of `Cc1cc(-c2nnc(NCCS(=O)(=O)N(C)C)o2)nc2c(C(F)(F)F)cc(C3CC3)cc12` [Compound 270], the inhibition at 10 µM was 84.7%.

Turning to `Cc1cc(-c2nnc(NCCCCCO)s2)nc2c(C(F)(F)F)cc(C3CC3)cc12` [Compound 291], the inhibition at 10 µM turned out to be 99.1%.

`Cc1cc(C(=O)NCC2CCN2)nc2c(C(F)(F)F)cc(C3CC3)cc12` (centres unmarked) [Compound 125]: the inhibition at 10 µM turned out to be 95.2%.

With `Cc1cc(-c2nnc(NCCCNS(C)(=O)=O)s2)nc2c(C(F)(F)F)cc(C3CC3)cc12` [Compound 296], the inhibition at 10 µM was 51.3%.

As to `CC(C)(C)c1cc(C2CC2)cc2c(N)cc(C(=O)NCc3ccccn3)nc12` [Compound 230], the inhibition at 10 µM is 100%.

As to `Cc1cc(C(=O)NC[C@H]2CCCN2)nc2c(C(F)(F)F)cc(C3CC3)cc12` (single isomer, unassigned) [Compound 113], the inhibition at 10 µM is 96.2%.

In the case of `O=C(NCc1ccccn1)c1cc(Cl)c2cc(C3CC3)cc(OC(F)(F)F)c2n1` [Compound 233], the inhibition at 10 µM worked out at 100%.

On to `Cc1cc(C(=O)NCCCO)nc2c(C(F)(F)F)cc(C3CC3)cc12` [Compound 121], for which the inhibition at 10 µM worked out at 99.2%.

Regarding `Cc1cc(C(=O)NCC(O)c2ccccc2)nc2c(C(F)(F)F)cc(-c3ccccc3)cc12` (centres unmarked) [Compound 168], the inhibition at 10 µM amounted to 86.4%.

As for `Cc1cc(C(=O)NCc2ccccn2)nc2c(C(F)(F)F)cc(CC(C)C)cc12` [Compound 140], the inhibition at 10 µM is 99.1%.

Consider `C=Cc1cc(C(=O)NCc2cccs2)nc2c(C(F)(F)F)cc(-c3ccccc3)cc12` [Compound 174], for which the inhibition at 10 µM worked out at 63.6%.

With `Cc1cc(C(=O)NCc2ccccn2)nc2c(C(F)(F)F)cc(C(C)(C)O)cc12` [Compound 161], the inhibition at 10 µM is 76.7%.

Consider `Nc1cc(C(=O)NCc2cccc(F)n2)nc2c(C(F)(F)F)cc(OC(F)F)cc12` [Compound 195], for which the inhibition at 10 µM amounted to 99.7%.

`Cc1cc(C(=O)NCC2COCCN2)nc2c(C(F)(F)F)cc(C3CC3)cc12` (centres unmarked) [Compound 100]: the inhibition at 10 µM is 99.5%.

As for `Cc1cc(C(=O)NCC2CCCCO2)nc2c(C(F)(F)F)cc(C3CC3)cc12` (centres unmarked) [Compound 81], the inhibition at 10 µM is 100%.

Take `Cc1cc(-c2nnc(NCCCCO)o2)nc2c(C(F)(F)F)cc(C3CC3)cc12` [Compound 258]: the inhibition at 10 µM stood at 100%.

Turning to `Nc1cc(C(=O)NCc2ccccn2)nc2c(OC(F)(F)F)cc(C3CC3)cc12` [Compound 235], the inhibition at 10 µM was determined as 100%.

With `Cc1cc(-c2nnc(NCCCS(N)(=O)=O)o2)nc2c(C(F)(F)F)cc(C3CC3)cc12` [Compound 267], the inhibition at 10 µM came to 97.7%.

Consider `Cc1cc(C(=O)NCCNc2ccccn2)nc2c(C(F)(F)F)cc(C3CC3)cc12` [Compound 129], for which the inhibition at 10 µM came to 94.9%.

As to `Cc1cc(-c2nnc(NCCOCCO)s2)nc2c(C(F)(F)F)cc(C3CC3)cc12` [Compound 292], the inhibition at 10 µM came to 97.9%.

As to `CCC(=O)CNC(=O)c1cc(C)c2cc(C3CC3)cc(C(F)(F)F)c2n1` [Compound 95], the inhibition at 10 µM amounted to 100%.

Staying with this experiment, now noted: Hepatitis C virus, Huh-7, 72 h, HCV1B replicon, Huh-7 cells, 3 days; read-out: EC50_HCV1B_.
Turning to `Cc1cc(-c2nnc(NC3CSC3)o2)nc2c(C(C)(C)C)cc(OCC(F)(F)F)cc12` [Compound 505], the EC50 came out at 6.25 nM.

Regarding `CC(C)(C)c1cc(C2CC2)cc2c(N)nc(C(=O)NCc3ncccn3)nc12` [Compound 433], the EC50 was 1.19 nM.

Take `CC(C)(O)CCNc1nnc(-c2cc(N)c3cc(C4CC4)cc(C(F)(F)F)c3n2)s1` [Compound 374]: the EC50 amounted to 62 nM.

For the molecule `Cc1cc(-c2nnc(NC3COC3)o2)nc2c(C(C)(C)C)cc(OCC(F)(F)F)cc12` [Compound 487], the EC50 was 41.5 nM.

In the case of `Cc1cc(-c2nnc(N)s2)nc2c(C(C)(C)C)cc(C3CC3)cc12` [Compound 379], the EC50 came to 1100 nM.

`Cc1cc(-c2nnc(NCC3S(=O)(=O)CCS3(=O)=O)o2)nc2c(C(C)(C)C)cc(OCC(F)(F)F)cc12` [Compound 484]: the EC50 turned out to be 2190 nM.

As to `CC(C)(C)c1cc(C2CC2)cc2c(NC(=O)CN)cc(-c3nnc(NCC4OCCO4)o3)nc12` [Compound 361], the EC50 is 7.36 nM.

As for `Cc1cc(-c2nnc(NCC(F)(F)CO)o2)nc2c(C(C)(C)C)cc(OCC(F)(F)F)cc12` [Compound 459], the EC50 was 4.32 nM.

Turning to `CC[C@]1(O)C[C@@H](Nc2nnc(-c3cc(C)c4cc(OCC(F)(F)F)cc(C(C)(C)C)c4n3)o2)C1` [Compound 478], the EC50 came to 1.48 nM.

With `Cc1cc(-c2nnc(NCC3CNC(=O)O3)o2)nc2c(C(C)(C)C)cc(C3CC3)cc12` (centres unmarked) [Compound 419], the EC50 is 43.9 nM.

As for `Cc1cc(-c2nnc(NC3CC4(COCO4)C3)o2)nc2c(C(C)(C)C)cc(C3CC3)cc12` (centres unmarked) [Compound 515], the EC50 was determined as 15.9 nM.

On to `Cc1cc(C(=O)Nc2cn[nH]c2)nc2c(OC(F)(F)F)cc(C3CC3)cc12` [Compound 439], for which the EC50 was 1160 nM.

Take `Cc1cc(-c2nnc(N[C@H]3C[C@H](O)C3)o2)nc2c(C(C)(C)C)cc(C3CC3)cc12` [Compound 422]: the EC50 stood at 5.55 nM.

Turning to `Cc1cc(C(=O)NC[C@@H]2CC3(CN2)OCCO3)nc2c(OC(F)(F)F)cc(C3CC3)cc12` [Compound 443], the EC50 stood at 18.8 nM.

On to `Cc1cc(-c2nnc(NCC3OCCO3)o2)nc2c(C(C)(C)C)cc(OCC(F)(F)C(F)(F)F)cc12` [Compound 523], for which the EC50 turned out to be 233 nM.

`Cc1cc(-c2nnc(N[C@H]3C[C@](O)(CF)C3)o2)nc2c(C(C)(C)C)cc(OCC(F)(F)F)cc12` [Compound 467]: the EC50 came out at 0.63 nM.

On to `Cc1cc(-c2nnc(NCC3CSCCN3)s2)nc2c(C(F)(F)F)cc(C3CC3)cc12` (centres unmarked) [Compound 312], for which the EC50 was found to be 2120 nM.

Turning to `Cc1cc(-c2nnc(N[C@H]3C[C@](O)(C(F)F)C3)o2)nc2c(C(C)(C)C)cc(OCC(F)(F)F)cc12` [Compound 468], the EC50 worked out at 0.36 nM.

On to `Cc1cc(-c2nnc(NC3CCCC3)o2)nc2c(C(F)(F)F)cc(C3CC3)cc12` [Compound 390], for which the EC50 stood at 1.75 nM.

Regarding `Cc1cc(-c2nnc(NCC[C@@H](C)O)s2)nc2c(C(C)(C)C)cc(C3CC3)cc12` [Compound 386], the EC50 turned out to be 1.14 nM.

`Cc1cc(-c2nnc(NCC3COC3)o2)nc2c(C(C)(C)C)cc(OCC(F)(F)F)cc12` [Compound 485]: the EC50 is 1050 nM.

As for `CC(C)(C)c1cc(OCC(F)(F)F)cc2c(N)cc(-c3nnc(Nc4ccccn4)o3)nc12` [Compound 520], the EC50 came out at 0.44 nM.

In the case of `CSCOC1(C)CC(Nc2nnc(-c3cc(C)c4cc(OCC(F)(F)F)cc(C(C)(C)C)c4n3)o2)C1` (centres unmarked) [Compound 494], the EC50 is 43.1 nM.

On to `CCCCNc1nnc(-c2cc(Cl)c3cc(C4CC4)cc(C(C)(C)C)c3n2)s1` [Compound 378], for which the EC50 turned out to be 48.9 nM.

For the molecule `CC(=O)N1CCNC(CNC(=O)c2cc(N)c3cc(OC(F)F)cc(C(F)(F)F)c3n2)C1` (centres unmarked) [Compound 317], the EC50 worked out at 9790 nM.

Still in this experiment, the particulars now being: Hepatitis C virus, Huh-7, 72 h; read-out: EC50_HCV1B_.
With `CCOP(=O)(CNc1nnc(-c2cc(C)c3cc(OCC(F)(F)F)cc(C(C)(C)C)c3n2)o1)OCC` [Compound 460], the EC50 was 388 nM.

The same experiment, now with this note: Hepatitis C virus, Huh-7, 72 h; read-out: Inhibition @ 10 uM in 1b-Rluc.
`CNC(=O)CNc1nnc(-c2cc(C)c3cc(C4CC4)cc(C(F)(F)F)c3n2)o1` [Compound 264]: the inhibition at 10 µM came out at 99.8%.
